Experimental data taken from the supplement of paper PMC9436093.

Legend:
Test in all cases: cell viability relative to DMSO (100%) and bortezomib (0%) controls; higher = more viable / less sensitive
Settings in all cases: 72 h
[1] = system: HAP1 HDAC1 KO + HDAC1 H141A transgene
Procedure: (§1)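 HAP1 cells (wildtype, HDAC1/2/3 catalytically inactive H>A mutant lines in wildtype or knockout background, HDAC3 KO, or wildtype pre-treated 6 h with 1 uM MS-275 or JQ12) were seeded onto compound-containing 384-well plates with an 8-point 1:3 dose series. ATP was read by CellTiter-Glo after 72 h. Viability is normalised to plate DMSO wells (100%) and bortezomib positive-control wells (0%) after outlier removal. Duplicate screen.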

[2] = system: HAP1 HDAC2 KO + HDAC2 H142A transgene
Procedure: as §1

[3] = system: HAP1 HDAC3 KO + HDAC3 H135A transgene
Procedure: as §1

HAP1 HDAC3 KO = system: HAP1 HDAC3 KO
Procedure: as §1

[4] = system: HAP1 WT + HDAC1 H141A transgene
Procedure: as §1

[5] = system: HAP1 WT + HDAC2 H142A transgene
Procedure: as §1

[6] = system: HAP1 WT + HDAC3 H135A transgene
Procedure: as §1

[7] = system: HAP1 wildtype + JQ12 1 uM (6 h pretreatment)
Procedure: as §1

[8] = system: HAP1 wildtype + MS-275 1 uM (6 h pretreatment)
Procedure: as §1

HAP1 wildtype = system: HAP1 wildtype
Procedure: as §1

COc1cc(Nc2ncc3c(n2)-c2ccc(Cl)cc2C(c2c(F)cccc2OC)=NC3)ccc1C(=O)O [Alisertib]
cell viability [%]
Settings	HAP1 HDAC3 KO	HAP1 wildtype	[1]	[2]	[3]	[4]	[5]	[6]	[7]	[8]
0.00617 µM	94.9	103	95.2	103	103	101	86.2	92.9	79.6	107
0.0185 µM	131	136	122	92.1	121	95.7	115	103	100	128
0.0556 µM	117	100	109	103	112	95.2	99.5	123	95.3	108
0.166666667 µM	70	110	52.1	31.8	70.2	71.2	62.6	147	34.2	43.2
0.5 µM	111	96.5	53.3	51	79.4	37.1	49.8	105	51.9	72.44
1.5 µM	114	83.2	38.4	54.5	82.3	15.1	21.9	101	51.7	61.6
4.5 µM	103	74.2	33.1	36.2	71.6	22.1	17.5	90.6	54.4	53.2
13.5 µM	116	73.4	19.6	21.8	89	2.6	12.7	108	52	46.8

CNC(=O)c1ccccc1Sc1ccc2c(/C=C/c3ccccn3)n[nH]c2c1 [Axitinib]
cell viability [%]
Settings	HAP1 HDAC3 KO	HAP1 wildtype	[1]	[2]	[3]	[4]	[5]	[6]	[7]	[8]
0.0123 µM	120	119	112	113	121	105	130	114	106	114
0.037 µM	99.1	95.8	94.3	94	87	90.6	82.1	90.2	76.9	92.3
0.111111111 µM	87.1	121	93	86.6	94	93.5	88.7	96.9	82.1	93.5
0.333333333 µM	102	102	84.5	107	101	94.8	101	121	109	101
1 µM	172	115	155	137	129	121	140	147	102	113
3 µM	48.9	72	54	23.4	34.8	21.8	46.4	88.11	57.83	67.8
9 µM	79.4	62	26.6	-0.112	36.3	5.34	16.3	101	48.6	52.5
27 µM	50.5	92.3	36	27.5	50.1	25.9	46.8	102	72.2	65.8
